According to patent US4581453A, “Guanidinothiazole derivatives containing alkylene bridges, and their use for influencing lipid metabolism” (Bayer Aktiengesellschaft, priority 1982, dated 1986):
Values after ≈ are worked out from the molar mass of the structure shown. Structures can show the parent of a compound that is named as a salt.

What was measured:
[1] = system: proliferation of the intima (arteria carotis comm.); conditions: rat; heparin following parenteral administration; cited from earlier work
Candida albicans = test: Antimycetic in vitro activity, series dilution test; type: cell-based; conditions: meat extract/dextrose broth, 24 to 96 hours, 20° C.; for MIC: read-out: Minimum inhibitory concentration
Protocol: (§1) The in vitro tests were carried out in a series dilution test using germ inocula of on average 5×10^4 germs/ml of substrate. The nutrient medium used was
(§2) (a) Sabourands' milieu d'epreuve for dermatophytes and moulds; and
(§3) (b) meat extract/dextrose broth for yeasts.
(§4) The incubation temperature was 20° C. and the incubation time was 24 to 96 hours for yeasts and 96 hours for dermatophytes and moulds.

Microsporum canis = test: as above; type: cell-based; conditions: Sabourands' milieu d'epreuve, 96 hours, 20° C.; for MIC: read-out: Minimum inhibitory concentration
Protocol: as §1, §2, §3, §4

Torulopsis glabrata = test: as above; type: cell-based; conditions: meat extract/dextrose broth, 24 to 96 hours, 20° C.; for MIC: Nakaseomyces glabratus, read-out: Minimum inhibitory concentration
Protocol: as §1, §2, §3, §4

Aspergillus fumigatus = test: as above; type: cell-based; conditions: Sabourands' milieu d'epreuve, 96 hours, 20° C.; for MIC: read-out: Minimum inhibitory concentration
Protocol: as §1, §2, §3, §4

[2] = system: Trichophyton mentagrophytes; test: as above; type: cell-based; conditions: Sabourands' milieu d'epreuve, 96 hours, 20° C.; for MIC: read-out: Minimum inhibitory concentration
Protocol: as §1, §2, §3, §4

[3] = system: platelet aggregation in rat PRP; test: Platelet aggregation-inhibiting action (PAH) ex vivo, thromboatherosclerosis experiment; type: in vivo; conditions: po, 1.5 h, read-out: PAH ex vivo: Activity, ED50 (dose/concentration range)
Protocol: The change in optical density of the sample of PRP was recorded over a period of 6 minutes and was determined via the reading after 6 minutes. The percentage inhibition is calculated from the corresponding readings. Moreover, the platelet aggregation was also determined in the context of the thromboatherosclerosis experiment. In carrying out these experiments, the active substance was administered to the animals orally in a Tylose suspension over a period of 10 days. On the 10th day, the animals were exsanguinated 90 minutes after the oral administration of the substance, and the PRP was isolated by means of centrifugation. After the PRP has been isolated, in vitro measurement of the aggregation inhibition starts, analogously to the process which has been described for the in vitro experiments; but without pre-incubation of the samples. 3 parts of rat PRP were also diluted with one part of physiological saline solution.
Atherosclerotic plaques are induced in rats by combination of two noxae (risk factors), that is to say vascular lesion and hyperlipaemia. By supercooling of the arteria carotis comm. (2 minutes, -10° C.), partial or complete endothelial scaling occurs in a locally restricted area. Proliferation of the intima occurs within 10 days, which is a relatively short period for such experiments, and largely corresponds to the early stages of atherosclerotic plaques in humans. The proliferation zones are removed and weighed. The moist weight in the supercooled segment of 1 cm is about 200-300 μg. The animals are additionally given a high-fat diet having the following composition: […]

liver cholesterol = test: Cholesterol loading test; type: in vivo, Wistar rats; conditions: rat, 24 hours
Protocol: Cholesterol loading tests were carried out on conscious male or female Wistar rats weighing between 130-230 g.
Cholesterol and the substance to be tested were simultaneously administered orally in 0.75% strength tragacanth suspension. After 24 hours, the animals were sacrificed and the cholesterol content of the liver was determined. Cholesterol was determined by the Liebermann-Burchard method using the test combination of Boehringer Mannheim. Control animals received a corresponding volume of cholesterol/tragacanth suspension without the test substance. To monitor the rise in cholesterol as a result of cholesterol loading, tragacanth suspension containing no cholesterol was administered orally to another control group.

[4] = system: proliferation of the intima (arteria carotis comm.); test: Anti-atherosclerotic action, thromboatherosclerosis model; type: in vivo; conditions: po; rat, per orally; read-out: anti-atherosclerotic: Activity, ED50 (dose/concentration range)
Protocol: Because of some fluid transitions between atherosclerosis and thrombosis, we have called the method used "thromboatherosclerosis model".
Folia angiologica 28, 85 (1980).
Atherosclerotic plaques are induced in rats by combination of two noxae (risk factors), that is to say vascular lesion and hyperlipaemia. By supercooling of the arteria carotis comm. (2 minutes, -10° C.), partial or complete endothelial scaling occurs in a locally restricted area. Proliferation of the intima occurs within 10 days, which is a relatively short period for such experiments, and largely corresponds to the early stages of atherosclerotic plaques in humans. The proliferation zones are removed and weighed. The moist weight in the supercooled segment of 1 cm is about 200-300 μg. The animals are additionally given a high-fat diet having the following composition:
52% of normal feed (Altromin®).
The lipid deposits are stained with the fat-soluble dyestuff Sudan IV and can be determined as an additional parameter.

Cyclooxygenase = biological target: T1, Cyclooxygenase (Homo sapiens, UniProt P23219); test: Arachidonic acid metabolism in platelets: cyclooxygenase inhibition; type: cell-based; conditions: 3H-arachidonic acid, read-out: Cyclooxygenase inhibition: Activity, ED50 (dose/concentration range) (converted)
T1 construct: endogenous in cells; host or cells: human platelets
T1 sequence (P23219 24-599): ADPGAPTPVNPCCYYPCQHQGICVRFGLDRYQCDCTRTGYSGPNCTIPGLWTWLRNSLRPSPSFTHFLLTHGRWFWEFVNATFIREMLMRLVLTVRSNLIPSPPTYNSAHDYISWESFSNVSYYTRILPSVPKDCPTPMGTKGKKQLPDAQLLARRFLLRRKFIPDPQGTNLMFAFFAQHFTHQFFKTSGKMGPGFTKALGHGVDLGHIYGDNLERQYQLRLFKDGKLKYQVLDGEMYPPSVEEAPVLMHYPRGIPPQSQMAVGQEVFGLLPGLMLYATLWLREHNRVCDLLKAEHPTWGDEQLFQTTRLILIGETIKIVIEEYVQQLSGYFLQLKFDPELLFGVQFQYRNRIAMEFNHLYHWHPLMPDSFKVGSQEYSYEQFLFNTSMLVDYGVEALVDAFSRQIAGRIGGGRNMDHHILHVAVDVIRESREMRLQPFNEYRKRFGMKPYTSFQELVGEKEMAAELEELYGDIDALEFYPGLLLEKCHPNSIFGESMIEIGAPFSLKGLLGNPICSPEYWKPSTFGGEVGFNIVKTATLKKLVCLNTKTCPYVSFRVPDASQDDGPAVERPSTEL
Excerpt: In human platelets, ^3 H-arachidonic acid is converted into the products of the cyclooxygenase/thromboxane synthetase path, in particular thromboxane A2, and those of the lipoxygenase path, HETE. Separation of the resulting products by thin layer chromatography gives a characteristic pattern. Inhibitors of the individual enzymatic reactions modify this pattern in a typical manner (Bailey, J. M. et al., Prostaglandins 13, 479-492 (1977)). The action of the compounds according to the invention on individual reactions in arachidonic acid metabolism are shown in Table 2.

Molecule | MIC (Candida albicans) [µg/mL] | MIC (Microsporum canis) [µg/mL] | MIC (Torulopsis glabrata) [µg/mL] | MIC (Aspergillus fumigatus) [µg/mL] | MIC [2] [µg/mL] | further results
neomycin |  |  |  |  |  | effectiveness in thromboatherosclerosis model (in words), prior agents [1]: ineffective
c1ccc(-c2csc(N=C3NCCCN3)n2)cc1 [Example 22] | 4 (≈ 15.5 µM) | < 1 | 32 (≈ 124 µM) | < 1 | < 1 | 
c1cc2c(cc1-c1csc(N=C3NCCCN3)n1)CCCC2 [Example 25] |  |  |  |  |  | ED50 [3]: 100 mg/kg; Reduction in the increase in liver cholesterol in percent in comparison with the control, following oral cholesterol loading (liver cholesterol; 10 mg/kg per orally): 65.3%; Reduction in the increase in liver cholesterol in percent in comparison with the control, following oral cholesterol loading (liver cholesterol; 30 mg/kg per orally): 78.1%
CC(=O)N1CCN(c2ccc(OCC3COC(Cn4ccnc4)(c4ccc(Cl)cc4Cl)O3)cc2)CC1 (centres unmarked) [Ketoconazol, ketoconazol, reference compound] | < 1 | 4 (≈ 7.53 µM) | 1 (≈ 1.88 µM) | 16 (≈ 30.1 µM) | < 1 | 
O=C(O)c1cccnc1 [nicotinic acid] |  |  |  |  |  | effectiveness in thromboatherosclerosis model (in words), prior agents [1]: ineffective
Cc1cc(Cl)ccc1-c1csc(N=C2NCCCN2)n1 [Example 33, 2-(N-(4'-(4"-Chloro-2"-methylphenyl)-thiazol-2'-yl)imino)-hexahydropyrimidine hydrochloride] | 2 | 2 | 16 | 2 | 2 | 
CN1CCCNC1=Nc1nc(-c2ccccc2)cs1 [Example 49] |  |  |  |  |  | ED50 [3]: 100 mg/kg; ED50 [4]: 100 mg/kg; IC50 (Cyclooxygenase): 36.7 µM
c1ccc2c(-c3csc(N=C4NCCCN4)n3)cccc2c1 [Example 24] | 2 (≈ 6.48 µM) | < 1 | 8 (≈ 25.9 µM) | < 1 | < 1 | 
heparin |  |  |  |  |  | effectiveness in thromboatherosclerosis model (in words), prior agents [1]: effective
Clc1ccc(-c2csc(N=C3NCCCN3)n2)c(Cl)c1 [Example 27] | < 1 | < 1 | 16 (≈ 48.9 µM) | 8 (≈ 24.4 µM) | < 1 | 
Clc1ccc(C2(Cn3ccnc3)OCC(COc3ccc(-c4ccccc4)cc3)O2)c(Cl)c1 (centres unmarked) [Doconazol, doconazol, reference compound] |  |  |  |  |  | Minimum inhibitory concentration (Candida albicans): < 1 µg/mL; Minimum inhibitory concentration (Microsporum canis): 8 µg/mL (≈ 16.6 µM); Minimum inhibitory concentration (Torulopsis glabrata): < 1 µg/mL; Minimum inhibitory concentration (Aspergillus fumigatus): 4 µg/mL (≈ 8.31 µM); Minimum inhibitory concentration [2]: < 1 µg/mL
Cc1nc(N=C2NCCCN2)sc1C(=O)Nc1ccc(Cl)cc1 [Example 17] |  |  |  |  |  | ED50 [3]: 100 mg/kg; Reduction in the increase in liver cholesterol in percent in comparison with the control, following oral cholesterol loading (liver cholesterol; 100 mg/kg per orally): 56.1%
